Test results published in PubChem BioAssay AID1963863 (Molecular Pharmacology Branch, DTP, NCI, 2024).

System: 931267-113-T-J1-PDC KRAS spheroid with HUVEC/MSC, viability
Assay: Anticancer human tumor 931267-113-T-J1-PDC patient-derived colon adenocarcinoma cell line growth inhibition [KRAS2]
Details: for IC50: curve of first compound; for viability, T/C: stronger effect = lower value
How it was run: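 KRAS-mutant tumor cells were grown as spheroids with HUVEC endothelial cells and human MSCs as stroma. Targeted agents were tested alone and with KRAS pathway inhibitors. Doses started at or near clinical Cmax, or 10 microM, descending half-log.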

[1] = second compound 0.1 µM, first compound 0.0316 µM
[2] = second compound 0.1 µM, first compound 0.1 µM
[3] = second compound 0.1 µM, first compound 0.316 µM
[4] = second compound 0.1 µM, first compound 1 µM
[5] = second compound 0.1 µM, first compound 3.16 µM
[6] = second compound 0.1 µM, first compound 10 µM
[7] = second compound 0.316 µM, first compound 0.0316 µM
[8] = second compound 0.316 µM, first compound 0.1 µM
[9] = second compound 0.316 µM, first compound 0.316 µM
[10] = second compound 0.316 µM, first compound 1 µM
[11] = second compound 0.316 µM, first compound 3.16 µM
[12] = second compound 0.316 µM, first compound 10 µM
[13] = second compound 1 µM, first compound 0.0316 µM
[14] = second compound 1 µM, first compound 0.1 µM
[15] = second compound 1 µM, first compound 0.316 µM
[16] = second compound 1 µM, first compound 1 µM
[17] = second compound 1 µM, first compound 3.16 µM
[18] = second compound 1 µM, first compound 10 µM
[19] = second compound 3.16 µM, first compound 0.0316 µM
[20] = second compound 3.16 µM, first compound 0.1 µM
[21] = second compound 3.16 µM, first compound 0.316 µM
[22] = second compound 3.16 µM, first compound 1 µM
[23] = second compound 3.16 µM, first compound 3.16 µM
[24] = second compound 3.16 µM, first compound 10 µM
[25] = second compound 10 µM, first compound 0.0316 µM
[26] = second compound 10 µM, first compound 0.1 µM
[27] = second compound 10 µM, first compound 0.316 µM
[28] = second compound 10 µM, first compound 1 µM
[29] = second compound 10 µM, first compound 3.16 µM
[30] = second compound 10 µM, first compound 10 µM
[31] = second compound 0.0316 µM, first compound 0.0316 µM
[32] = second compound 0.0316 µM, first compound 0.1 µM
[33] = second compound 0.0316 µM, first compound 0.316 µM
[34] = second compound 0.0316 µM, first compound 1 µM
[35] = second compound 0.0316 µM, first compound 3.16 µM
[36] = second compound 0.0316 µM, first compound 10 µM
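Further: compound exposure lasted 7 days before the readout.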
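Wherever viability, T/C is given: 100% = DMSO vehicle control viability.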

Row | SMILES | IC50 (second compound 0.1 µM) [nM] | IC50 (second compound 0.316 µM) [nM] | IC50 (second compound 1 µM) [nM] | IC50 (second compound 3.16 µM) [nM] | viability, T/C [1] [%] | viability, T/C [2] [%] | viability, T/C [3] [%] | viability, T/C [4] [%] | viability, T/C [7] [%] | viability, T/C [8] [%] | viability, T/C [9] [%] | viability, T/C [10] [%] | viability, T/C [13] [%] | viability, T/C [14] [%] | viability, T/C [15] [%] | viability, T/C [16] [%] | viability, T/C [19] [%] | viability, T/C [20] [%] | viability, T/C [21] [%] | viability, T/C [22] [%] | also measured
1 | CC(C)NCC(C(=O)N1CCN(c2ncnc3c2C(C)CC3O)CC1)c1ccc(Cl)cc1 (stereo not given) + C=CC(=O)N1CCN(c2nc(=O)n(-c3c(C)ccnc3C(C)C)c3nc(-c4c(O)cccc4F)c(F)cc23)C(C)C1 | 6740 | 5610 | 4630 | 6030 | 109 | 97.2 | 85.8 | 89.1 | 95.5 | 83.2 | 80.2 | 75.1 | 95.9 | 96 | 76.8 | 71.2 | 83.7 | 90.6 | 80.6 | 79.1 | IC50 (second compound 10 µM): 1810 nM; viability, T/C [5]: 71.7%; viability, T/C [6]: 38.5%; viability, T/C [11]: 62.5%; viability, T/C [12]: 38.2%; viability, T/C [17]: 68%; viability, T/C [18]: 28.8%; viability, T/C [23]: 64.7%; viability, T/C [24]: 38.3%; viability, T/C [25]: 81.4%; viability, T/C [26]: 71.4%; viability, T/C [27]: 70.5%; viability, T/C [28]: 49.7%; viability, T/C [29]: 50.7%; viability, T/C [30]: 22.4%
2 | COc1cc(Nc2ncc3c(n2)-c2ccc(Cl)cc2C(c2c(F)cccc2OC)=NC3)ccc1C(=O)O + C=CC(=O)N1CCN(c2nc(OCC3CCCN3C)nc3c2CCN(c2cccc4cccc(C)c24)C3)CC1CC#N | > 10000 | > 10000 | 5040 | < 31.6 | 106 | 89.7 | 85.6 | 88 | 93.5 | 91.8 | 91.7 | 55.6 | 92.6 | 60.3 | 66.4 | 64.1 | 0.22 | 0.29 | 0.25 | 0.3 | IC50 (second compound 0.0316 µM): > 10000 nM; viability, T/C [31]: 87.9%; viability, T/C [32]: 89.5%; viability, T/C [33]: 93.8%; viability, T/C [34]: 75.6%; viability, T/C [35]: 95.8%; viability, T/C [36]: 68.1%; viability, T/C [5]: 68.6%; viability, T/C [6]: 58.3%; viability, T/C [11]: 70%; viability, T/C [12]: 63%; viability, T/C [17]: 66%; viability, T/C [18]: 31.8%; viability, T/C [23]: 0.17%; viability, T/C [24]: 0.23%
3 | COC(=O)c1ccc2c(C(=Nc3ccc(N(C)C(=O)CN4CCN(C)CC4)cc3)c3ccccc3)c(O)[nH]c2c1 + CC1OCC2(CCN(c3cnc(Sc4ccnc(N)c4Cl)c(N)n3)CC2)C1N | 700 | 251 | < 31.6 | < 31.6 | 69.4 | 68.6 | 57.1 | 44.4 | 63.5 | 67.5 | 38.7 | 34.3 | 51.2 | 43.6 | 44 | 4.05 | 48.1 | 37 | 25 | 2.45 | IC50 (second compound 10 µM): < 31.6 nM; viability, T/C [5]: 0.37%; viability, T/C [6]: 0.35%; viability, T/C [11]: 0.32%; viability, T/C [12]: 0.28%; viability, T/C [17]: 0.33%; viability, T/C [18]: 0.32%; viability, T/C [23]: 0.48%; viability, T/C [24]: 0.38%; viability, T/C [25]: 37.6%; viability, T/C [26]: 32.4%; viability, T/C [27]: 13.2%; viability, T/C [28]: 0.77%; viability, T/C [29]: 0.35%; viability, T/C [30]: 0.45%
4 | COC(=O)c1ccc2c(C(=Nc3ccc(N(C)C(=O)CN4CCN(C)CC4)cc3)c3ccccc3)c(O)[nH]c2c1 + C=CC(=O)N1CCN(c2nc(OCC3CCCN3C)nc3c2CCN(c2cccc4cccc(C)c24)C3)CC1CC#N | 1170 | 647 | 120 | < 31.6 | 73.9 | 76.4 | 64.5 | 57.8 | 95 | 88.8 | 67.6 | 42.8 | 47.2 | 63.7 | 20.4 | 0.52 | 0.24 | 0.16 | 0.25 | 0.15 | IC50 (second compound 0.0316 µM): 683 nM; viability, T/C [31]: 90.5%; viability, T/C [32]: 87.1%; viability, T/C [33]: 61.1%; viability, T/C [34]: 50.7%; viability, T/C [35]: 0.59%; viability, T/C [36]: 0.32%; viability, T/C [5]: 0.37%; viability, T/C [6]: 0.38%; viability, T/C [11]: 0.3%; viability, T/C [12]: 0.2%; viability, T/C [17]: 0.13%; viability, T/C [18]: 0.19%; viability, T/C [23]: 0.21%; viability, T/C [24]: 0.22%
5 | CCN1CCN(Cc2ccc(Nc3ncc(F)c(-c4cc(F)c5nc(C)n(C(C)C)c5c4)n3)nc2)CC1 + COc1cc2nc(C)nc(NC(C)c3cc(N)cc(C(F)(F)F)c3)c2cc1OC1CCOC1 | 454 | 122 | 258 | 68 | 62.5 | 74.7 | 45.5 | 45.9 | 72.2 | 51.2 | 47.2 | 37.4 | 76.3 | 56.4 | 53.2 | 42.7 | 49.7 | 48.8 | 42.4 | 27.1 | IC50 (second compound 10 µM): < 3.16 nM; viability, T/C (second compound 0.1 µM, first compound 0.00316 µM): 86.4%; viability, T/C (second compound 0.1 µM, first compound 0.01 µM): 86.8%; viability, T/C (second compound 0.316 µM, first compound 0.00316 µM): 80.6%; viability, T/C (second compound 0.316 µM, first compound 0.01 µM): 90.1%; viability, T/C (second compound 1 µM, first compound 0.00316 µM): 78.7%; viability, T/C (second compound 1 µM, first compound 0.01 µM): 78.1%; viability, T/C (second compound 3.16 µM, first compound 0.00316 µM): 74.5%; viability, T/C (second compound 3.16 µM, first compound 0.01 µM): 67.2%; viability, T/C (second compound 10 µM, first compound 0.00316 µM): 3.71%; viability, T/C (second compound 10 µM, first compound 0.01 µM): 1.83%; viability, T/C [25]: 2.06%; viability, T/C [26]: 3.4%; viability, T/C [27]: 1.38%; viability, T/C [28]: 0.23%
6 | Cn1nccc1Nc1nccc(-c2cc3c(s2)C(C)(C)N(CCN2CCOCC2)C3=O)n1 + C=CC(=O)N1CCN(c2nc(OCC3CCCN3C)nc3c2CCN(c2cccc4cccc(C)c24)C3)CC1CC#N | 526 | 400 | 365 | < 31.6 | 88.9 | 92 | 57.8 | 37.8 | 107 | 91 | 55.7 | 25.5 | 88.5 | 65.9 | 59.7 | 23.2 | 0.35 | 0.25 | 0.29 | 0.14 | IC50 (second compound 0.0316 µM): 424 nM; viability, T/C [31]: 118%; viability, T/C [32]: 97.7%; viability, T/C [33]: 59.8%; viability, T/C [34]: 23%; viability, T/C [35]: 7.09%; viability, T/C [36]: 4.66%; viability, T/C [5]: 4.83%; viability, T/C [6]: 4.43%; viability, T/C [11]: 6.39%; viability, T/C [12]: 4.33%; viability, T/C [17]: 3.82%; viability, T/C [18]: 2.07%; viability, T/C [23]: 0.14%; viability, T/C [24]: 0.22%
